Entries after “also recorded” stand apart in the source; their conditions may differ.
What was measured:
[1] = system: PR1 (marker gene for the salicylic acid signaling pathway); assay: Transcriptional response of defense gene PR1 in tomato plants exposed to volatiles (laboratory); type: in vivo, Solanum lycopersicum cv. Moneymaker; conditions: intact tomato plants exposed 24 h; filter paper, 1:10,000 ester:methanol; n=8
Description: (§1) Moneymaker tomato plants were used. Two weeks after seed germination, the seedlings were individually transplanted into pots (8×8×8 cm). The plants were kept at 25±2° C., with a constant relative humidity of 65%±5% and a 14:10 h (light:dark) photoperiod. Tomato plants that had not received any pesticide treatment at four weeks of age (about 20 cm tall) were used. All volatiles used were obtained from Sigma-Aldrich (St. Louis, Mo., USA). Each volatile was exposed by using a 2×2 cm piece of filter paper on which 10 μl of a solution containing the corresponding volatile at a concentration of 1:10,000 [(Z)-3-hexenyl ester:methanol] was impregnated as an emitting source of the corresponding volatile (Pérez-Hedo, M. et al. Biocontrol, 63: 203-213 (2018)).
(§2) To activate a plant, two pieces of filter paper impregnated with the volatile were placed at the bottom of a 30×30×30 cm plastic cage (BugDorm-1 Insect Tents; MegaView Science Co., Ltd, Taichung, Taiwan) into which the plant was introduced. A control treatment was carried out in which the two pieces of filter paper were impregnated with 10 μl of methanol. Eight repetitions per treatment were performed. The plants of the treatments were kept exposed to the volatile without disturbing for 24 hours in separate and isolated climatic chambers to avoid any interference from the volatiles and were kept at 25±2° C., 65±10% RH, and a 14:10 h (L:D) photoperiod. […]
(§3) The methodology followed for extracting and quantifying gene expression was described by Pérez-Hedo et al. Journal of Pest Science 3: 543-554 (2015). The primers used were forward primer: 5′-[…]-3′ (SEQ ID NO: 1) and reverse primer: 5′-[…]-3′ (SEQ ID NO: 2) for the quantification of PR1, forward primer: 5′-[…]-3′ (SEQ ID NO: 3) and reverse primer: 5′-[…]-3′ (SEQ ID NO: 4) for SI-PI-I, and forward primer: 5′-[…]-3′ (SEQ ID NO: 5) and reverse primer: 5′-[…]-3′ (SEQ ID NO: 6) for the SI-PI-II gene. […]

[2] = system: SI-PI-I (marker for plant proteinase inhibitors); assay: Transcriptional response of SI-PI-I in tomato plants exposed to volatiles (laboratory); type: in vivo, Solanum lycopersicum cv. Moneymaker; conditions: intact tomato plants exposed 24 h; filter paper, 1:10,000 ester:methanol; n=8
Description: as §1, §2, §3

[3] = system: Encarsia formosa; assay: Y-tube olfactometer preference, exposed vs intact tomato plants; type: in vivo; conditions: plants exposed 24 h vs intact plants
Excerpt: (§4) It was studied whether the defensive activation achieved by exposure to (Z)-3-hexenyl propanoate could affect repellency and/or attraction in herbivores that attack tomatoes, the whitefly Bemisia tobaci (Gennadius) (Hemiptera: Aleyrodidae), the thrip Frankliniella occidentalis Pergande (Thysanoptera: Thripidae), the red spider Tetranychus urticae Koch (Acari: Tetranychidae) and the tomato borer, Tuta absoluta (Meyrick) (Lepidoptera: Gelechiidae), and in a natural enemy that has been used as a model organism in this crop, the parasitoid Encarsia formosa Gahan (Hymenoptera: Aphelinidae).
(§5) The last instar nymphs of B. tabaci and the pupae of E. formosa were provided by Koppert Biological Systems, S. L. (Águilas, Murcia, Spain). The recently emerged B. tabaci adults (less than 2 days old) were released into tomato plants inside 60×60×60 cm plastic cages (BugDorm-2) and placed in a climatic chamber at 25±2° C., 65±10% RH and a 14:10 h (L:D) photoperiod in IVIA. Five-day-old B. tabaci adults were used in all the experiments. In the case of E. formosa, the pupae were placed in a Petri dish 9 cm in diameter and allowed to emerge under ambient laboratory conditions (25±2° C.), with a small drop of honey as food. E. formosa females less than two days old were used in all the experiments. F. occidentalis adults came from a brood kept in captivity established in the Valencian Institute of Agrarian Research (Instituto Valenciano de Investigaciones Agrarias, IVIA) in 2010, originally from Campo de Cartagena (Murcia, Spain). The thrips brood was kept in bean pods (Phaseolus vulgaris L.; Fabales: Fabaceae) under the same conditions described above. All the F. occidentalis females used for experimentation were less than five days old. T. urticae adults were obtained from a colony established in IVIA in 2011, which initially came from clementines located in La Plana (Castelló, Spain). The mites were kept on tomato plants in a climatic chamber under the same conditions described above. T. absoluta females were obtained from colonies on tomatoes maintained in a greenhouse at IVIA at 25±4° C., 60±15% RH, and under a natural photoperiod. Newly emerged adult females less than 5 days old were used in all the assays.
(§6) To assess the preference of F. occidentalis, B. tabaci, T. urticae, T. absoluta and E. formosa for tomato plants that were previously exposed for 24 h to (Z)-3-HP relative to intact plants, a Y-shaped olfactometer was used. The plants were exposed to both volatiles as described above using the pieces of filter paper. The olfactometer (Analytical Research Systems, Gainesville, Fla.) consisted of a 2.4 cm in diameter Y-shaped glass tube with a 13.5 cm long base and two arms, each 5.75 cm long. Both side arms were connected via high-density polyethylene (HDPE) tubing to two identical glass jars (5-liter volume), each of which was connected to an air pump that produced a unidirectional humidified airflow at 150 ml/min (Pérez-Hedo et al. Journal of Pest Science 3: 543-554 (2015)).
(§7) For each species, a female was individually introduced into the inlet tube of the olfactometer and observed until she had walked at least 3 cm down one of the arms of choice or until 15 minutes had elapsed. A total of 40 valid replicates were recorded for each species for each pair of odor sources. Each individual was tested only once. […] After recording five responses, the Y-tube was rinsed with soapy water, cleaned with acetone, and allowed to dry for 5 minutes. […]

[4] = system: Frankliniella occidentalis; assay: as above; type: in vivo; conditions: plants exposed 24 h vs intact plants
Excerpt: as §4, §5, §6, §7

[5] = system: Tetranychus urticae; assay: as above; type: in vivo; conditions: plants exposed 24 h vs intact plants
Excerpt: as §4, §5, §6, §7

[6] = system: Bemisia tabaci; assay: as above; type: in vivo; conditions: plants exposed 24 h vs intact plants
Excerpt: as §4, §5, §6, §7

[7] = system: Tuta absoluta; assay: as above; type: in vivo; conditions: plants exposed 24 h vs intact plants
Excerpt: as §4, §5, §6, §7

CC/C=C\CCOC(=O)CC [(Z)-3-hexenyl propanoate]
Transcriptional response of PR1 compared to the control [1]: significantly overexpressed | Transcriptional response of SI-PI-I compared to the control [2]: significantly overexpressed | Response of E. formosa females to exposed tomato plants [3]: more attractive | Response of F. occidentalis females to exposed tomato plants [4]: repel; also recorded: repellent | Response of T. urticae females to exposed tomato plants [5]: no preference | Response of B. tabaci females to exposed tomato plants [6]: repel; also recorded: repellent | Response of T. absoluta females to exposed tomato plants [7]: repel; also recorded: repellent

Source: US20230240290A1, “USE OF (Z)-3-HEXENYL ESTERS AND METHOD FOR PROTECTING PLANTS AGAINST PESTS” (UNIVERSITAT POLITÈCNICA DE VALÈNCIA, priority 2020, published 2023)
